Assay results reported in patent US9321993B2, “Tissue culture method for producing cartilage using trimethylamine N-oxide and chondroitinase” (The Trustees of Columbia University in the City of New York, priority 2010, dated 2016).

What was measured:
[1] = system: Articular chondrocytes; experiment: Equilibrium Young's and dynamic modulus under 10% unconfined compression, Example 2; type: cell-based, bovine; conditions: for mechanical properties (Young's modulus) versus control group: day 28
Experimental: (§1) Articular chondrocytes were harvested from juvenile bovine wrist joints (2-4 weeks old), and digested for 8 hrs at 37° C. with Collagenase V (Sigma) to isolate chondrocytes. The cells were expanded for one passage in DMEM media containing 10% FBS, 1% PSAM, 5 ng/ml bFGF, 10 ng/ml PDGF, and 1 ng/ml of TGF-b1 (plating density=180 cells/cm^2) (see Ng et al. 2010 Tissue Eng Part A 16(3), 1041-1051). The passaged cells were seeded in 2% w/v agarose hydrogel scaffold (Type VII, Sigma Inc.) at a concentration of 30M cells/ml. Samples were cored (diameter=4 mm, thickness=2.34 mm) and cultured in chondrogenically-defined media (CM: DMEM with 0.1 uM dexamethasone, 40 mg/mL L-proline, 50 mg/mL ascorbate 2-phosphate, […] sodium pyruvate, 1×ITS+premix, 100 U/ml penicillin, and […] streptomycin and amphotericin B) supplemented with TGF-β3 for the first 14 days. Constructs grown without TMAO served as control.
(§2) Six culture medias were evaluated, with serum free media containing ascorbic acid and 10 ng/ml of TGF-b3 for the first 14 days used as the control (see Lima et al. 2007 Osteoarthritis Cartilage 15(9), 1025-1033). TMAO was added to the media at concentrations of 55 mM and 180 mM, and urea was added to the media at concentrations of 90 mM and 360 mM. The final group included a combination (combo) of TMAO (180 mM) and urea (360 mM).
(§3) The equilibrium Young's (Eγ) and dynamic modulus was determined under 10% unconfined compression. Biochemical analysis was performed to determine the GAG, hydroxyproline (OHP) and DNA content. GAG and OHP values were normalized to the DNA content and wet weight. Tested samples were fixed for histology and stained with Picosirius Red and Safranin-O to determine the distribution of collagen and GAG, respectively. Mechanical, biochemical and histological analysis was performed every two weeks (n=4/5). A two-way ANOVA (factors: culture day and treatment) was performed to evaluate the treatment for mechanical and biochemical analysis with a Bonferroni post hoc analysis.

[2] = system: Articular chondrocytes; experiment: Young's and dynamic modulus after transient application of TMAO, Example 3; type: cell-based, bovine; conditions: 50 mM TMAO for the first 14 days (transient); day 42
Experimental: as §1
(§4) The equilibrium Young's (Eγ) and dynamic modulus was determined under 10% unconfined compression. Biochemical analysis was performed to determine the GAG, hydroxyproline (OHP) and DNA content. GAG and OHP values were normalized to the DNA content and wet weight. Tested samples were fixed for histology and stained with Picosirius Red and Safranin-O to determine the distribution of collagen and GAG, respectively. […]

[3] = system: Articular chondrocytes; experiment: Equilibrium modulus of constructs digested with chondroitinase ABC, then cultured with CM or TMAO, Example 4; type: cell-based, bovine
Experimental: as §1, §3
(§5) Methods are according to Example 2 unless otherwise indicated.
Mature constructs were enzymatically digested for 48 hours at day 14 with 0.15 U/mL of chondroitinase ABC (chABC), which degrades proteoglycans, then cultured with CM or CM supplemented with 5 mM of TMAO. […] Following the digestion, constructs were cultured in either CM or CM supplemented with 5 mM TMAO. A Student's t-test was performed to compare properties of the constructs cultured in CM or CM supplemented with TMAO. Significance was set at ? =0.05.

[4] = system: Articular chondrocytes; experiment: Biochemical analysis (GAG, OHP) and histology of constructs, Example 2; type: cell-based, bovine
Experimental: as §1, §2, §3

[5] = system: nucleus pulposus (spine tissue) cells; experiment: GAG and OHP (collagen) content of nucleus pulposus micropellets, Example 5; type: cell-based
Experimental: as §3, §5
Micropellets (scaffold-free constructs comprised of aggregated cells only) consisting of nucleus pulposus (spine tissue) cells were cultured for […]. The media was supplement with either 5 mM or 50 mM TMAO. Micropellets cultured in CM were used as the control. Micropellets were cultured for 6 weeks and analyzed for biochemistry (i.e. GAG, DNA and OHP contents).

[6] = system: Articular chondrocytes; experiment: GAG and OHP content after transient application of TMAO, Example 3; type: cell-based, bovine
Experimental: as §1, §3
Culture media was supplemented with 0 mM, 5 mM, 50 mM, 100 mM or 200 mM of TMAO for the first 14 days of culture (transient application).
Methods are according to Example 2 unless otherwise indicated. Statistical analysis included a two-way ANOVA (factors: time & concentration) with a Bonferonni post-hoc test.

[7] = system: Articular chondrocytes; experiment: Biochemical content of constructs digested with chondroitinase ABC, then cultured with CM or TMAO, Example 4; type: cell-based, bovine
Experimental: as §1, §4

[8] = system: Immature bovine chondrocytes; experiment: Stiffness (Young's modulus) of engineered constructs cultured with supplemented media, Example 1; type: cell-based; conditions: TMAO 180 or 55 mM from day 0; day 28 of culture
Experimental: Immature bovine chondrocytes were enzymatically isolated and encapsulated in 2% w/v type VII agarose (Sigma). Engineered cylindrical constructs were cultured in serum-free chondrogenic media (ITS+, ascorbic acid, dexamethasone, pen/strep) and transforming growth factor beta-3 (TGFβ3) for the first 14 days.
The culture media of some constructs were supplemented from day 0 with TMAO (180 or 55 mM), urea (360 or 90 mM) or TMAO+urea (combo: 360 mM urea and 180 mM TMAO which is the physiological ratio found in shark tissue).

[9] = 5 mM TMAO after chABC digestion, by day 28, persisted to day 42
[10] = high concentration of urea (360 mM)
[11] = lower concentrations of urea (90 mM)

C[N+](C)(C)[O-] [TMAO, Trimethylamine N-oxide]
mechanical properties (Young's modulus) versus control group ([1]; 55 mM TMAO): 2 × | mechanical properties (Young's modulus) versus control group ([1]; 180 mM TMAO): 2 × | Young's modulus versus control group [2]: significantly greater than the control group | dynamic modulus versus control group [2]: significantly greater than the control group | mechanical properties relative to CM alone [3, 9]: significantly greater | recovery of the mechanical properties ([3]; TMAO supplement following the chABC digestion, compared to the control): quicker recovery | EY (equilibrium Young's modulus) ([3]; day 42, CM with 5 mM TMAO after chABC digestion, CM group 115.6±38.1 kPa): 235.6±75.8 kPa | normalized GAG content versus control ([4]; 55 mM TMAO, day 28): significantly greater than control | normalized collagen content versus control ([4]; 55 mM TMAO, day 28): significantly greater than control | histology: distribution of GAG and collagen throughout the thickness of the construct ([4]; 55 mM TMAO, day 28, Picosirius Red and Safranin-O): even distribution | GAG production of the micropellets ([5]; 5 mM or 50 mM TMAO, normalized by DNA content at day 42 (FIG. 9A)): graded effect | increase in collagen production ([5]; CM supplemented with TMAO (5 mM or 50 mM), normalized by DNA content at day 42 (FIG. 9B)): 50% | OHP content greater than the control values ([6]; 100 mM TMAO, day 28): approximately 50% | GAG content (normalized to wet weight) greater than control values ([6]; TMAO 5 mM, 50 mM and 100 mM, day 42): up to 17% | OHP content (normalized to the wet weight) versus control ([6]; TMAO groups, day 28, reaching significance for 50 mM and 100 mM): greater than the control | biochemical properties relative to CM alone [7, 9]: significantly greater | collagen content compared to the control ([7]; TMAO supplement following the chABC digestion): increases the collagen content | Young's modulus (stiffness) versus control group [8]: two-fold

NC(N)=O [urea, reference compound]
mechanical properties versus day 0 [1, 10]: did not increase from day 0 | effect on mechanical properties [1, 11]: did not have adverse effects | biochemical properties versus day 0 [4, 10]: did not increase from day 0 | effect on biochemical properties [4, 11]: did not have adverse effects
